Read-outs that look alike come from different tables or passages of the source.

A word on the EC50: it is the midpoint of the concentration-response curve.

For assay [1], the target named is T1, human insulin receptors (hIR) (Homo sapiens, UniProt P06213).
T1 construct: partially purified from placental extracts or from cell line IM-9; from tissue; host or cells: human placental extracts or cell line IM-9
The assay can be described thus: insulin receptor kinase autophosphorylation assay (captured hIR, anti-phosphotyrosine ELISA). The class given is biochemical. The following applies: for agonist activity in IR kinase assay (in words): samples as screened; for activity in IR kinase assay after synthesis or purification: synthesized or extensively purified / HPLC-purified material. As to the method:
This assay is a modified form of that described in Hagino, H. et al. Diabetes (1994) 43:274-280. […] The partially purified hIRs were captured into microplate wells by incubating them for 90 minutes with wells coated with a monoclonal antibody to hIR. […] After 60 minutes, the wells were washed, and then treated for 60 minutes with biotinylated antibody directed against phosphotyrosine (PY-20) and unbound materials again washed away. The wells were then incubated with a conventional streptavidin peroxidase system for 30 minutes to assess the level of phosphorylated tyrosine.

Another assay addresses T2, human insulin receptor (Homo sapiens, UniProt P06213).
T2 construct: partially purified from placental extracts or from cell line IM-9; from tissue; host or cells: human placental extracts or cell line IM-9
In words: phosphorylation of artificial substrate poly(Glu4Tyr) by activated receptor, labeled ATP. The class given is biochemical.

Assay [2] has as its target T3, insulin receptor on human lymphocytic cell line IM-9 (Homo sapiens, UniProt P06213).
T3 construct: on whole cells, i.e., on the human lymphocytic cell line IM-9; endogenous in cells; host or cells: IM-9 human lymphocytic cell line
In words: insulin receptor agonist activity on whole IM-9 cells (lysate ELISA). The class given is cell-based. As to the method: The cells were then lysed in 0.5% Tween 20 and lysates analyzed in an ELISA assay as described in paragraph A, without the steps of incubation with ATP.

Assay [3] has as its target T4, recombinantly produced β chain lacking the insulin-binding domain (Homo sapiens, UniProt P06213).
T4 construct: purchased Stratagene, Inc
In words: phosphorylation of substrate peptide Raytide by recombinant beta chain kinase. The assay is classed as biochemical. To be noted: 25 μM. How it is done: The ability of this kinase to phosphorylate a substrate peptide (Raytide from Oncogene Sciences) is stimulated by TER12 at 25 μM.

Assay [4] deals with 3T3-L1 fibroblast cells. The assay can be described thus: differentiation of 3T3-L1 fibroblasts to adipocyte-like morphology (Oil Red O uptake). The assay is classed as cell-based. The source says: (§1) Insulin also enhances glucose transport in this cell line.
For assay [5], the system named is 3T3-L1 fibroblast cells. In words: glucose transport in 3T3-L1 cell line. The class given is cell-based.
Excerpt: as §1

The test system of assay [6] is Glut4 transporter in 3T3-L1 adipocytes. In words: distribution of Glut4 transporter in 3T3-L1 adipocytes (immunofluorescence). The class given is cell-based. To be noted: 15 minutes incubation. The text has this:
The results were visualized under a fluorescent microscope.

T3 sequence (P06213 763-1382 limits assumed): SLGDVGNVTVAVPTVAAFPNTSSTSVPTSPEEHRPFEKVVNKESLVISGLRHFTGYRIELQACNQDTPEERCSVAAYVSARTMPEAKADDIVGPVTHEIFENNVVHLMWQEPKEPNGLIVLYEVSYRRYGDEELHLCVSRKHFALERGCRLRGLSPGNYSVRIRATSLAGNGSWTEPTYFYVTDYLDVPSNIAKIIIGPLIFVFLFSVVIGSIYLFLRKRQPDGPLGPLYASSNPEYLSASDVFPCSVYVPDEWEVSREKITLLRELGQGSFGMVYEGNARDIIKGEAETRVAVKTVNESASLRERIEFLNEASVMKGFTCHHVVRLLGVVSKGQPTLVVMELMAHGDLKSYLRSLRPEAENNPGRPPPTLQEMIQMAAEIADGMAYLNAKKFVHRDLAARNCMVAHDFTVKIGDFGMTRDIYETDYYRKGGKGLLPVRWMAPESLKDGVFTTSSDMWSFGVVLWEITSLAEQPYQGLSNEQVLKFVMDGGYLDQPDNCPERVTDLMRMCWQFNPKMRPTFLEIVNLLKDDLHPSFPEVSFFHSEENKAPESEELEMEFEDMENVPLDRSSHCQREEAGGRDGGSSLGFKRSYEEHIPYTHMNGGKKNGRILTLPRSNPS
T3 sequence (P06213 28-758 partner limits assumed): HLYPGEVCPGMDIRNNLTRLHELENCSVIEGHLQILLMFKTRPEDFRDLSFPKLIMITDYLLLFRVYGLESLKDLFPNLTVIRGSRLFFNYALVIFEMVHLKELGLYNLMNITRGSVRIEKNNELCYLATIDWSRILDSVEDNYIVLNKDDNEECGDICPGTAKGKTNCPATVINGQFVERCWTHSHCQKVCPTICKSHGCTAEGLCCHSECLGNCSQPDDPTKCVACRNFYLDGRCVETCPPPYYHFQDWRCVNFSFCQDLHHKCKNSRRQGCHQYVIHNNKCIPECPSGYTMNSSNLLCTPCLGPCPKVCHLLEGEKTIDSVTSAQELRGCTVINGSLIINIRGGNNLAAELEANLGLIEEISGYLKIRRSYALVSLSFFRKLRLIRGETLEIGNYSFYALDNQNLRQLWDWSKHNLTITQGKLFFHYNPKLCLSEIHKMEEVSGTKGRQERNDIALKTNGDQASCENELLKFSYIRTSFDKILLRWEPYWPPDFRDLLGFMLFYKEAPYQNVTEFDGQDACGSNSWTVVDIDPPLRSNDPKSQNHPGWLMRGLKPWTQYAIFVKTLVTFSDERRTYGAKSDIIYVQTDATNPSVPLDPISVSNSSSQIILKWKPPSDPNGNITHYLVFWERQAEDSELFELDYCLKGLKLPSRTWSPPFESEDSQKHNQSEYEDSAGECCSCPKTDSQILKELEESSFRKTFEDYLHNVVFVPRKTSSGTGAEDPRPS
T1 sequence (P06213 763-1382 limits assumed): as the sequence (P06213 763-1382 limits assumed) above
T1 sequence (P06213 28-758 partner limits assumed): as the sequence (P06213 28-758 partner limits assumed) above
T2 sequence (P06213 763-1382 limits assumed): as the sequence (P06213 763-1382 limits assumed) above
T2 sequence (P06213 28-758 partner limits assumed): as the sequence (P06213 28-758 partner limits assumed) above
T4 sequence (P06213 763-1382 limits assumed): as the sequence (P06213 763-1382 limits assumed) above

For the compound `O=C(Nc1cc(S(=O)(=O)[O-])cc2cc(S(=O)(=O)[O-])c(N=Nc3cc(Nc4nc(Cl)nc(Nc5ccc(S(=O)(=O)[O-])cc5)n4)ccc3S(=O)(=O)[O-])c(O)c12)c1ccccc1.[Na+].[Na+].[Na+].[Na+]` [TER12, Cibacron Brilliant Red 3BA], the “increase in phosphorylation on addition to insulin” value in assay [1] (60 μM sample added to hIR contacted with 0.3 nM insulin) is given as “approximately three-fold”. In addition, the stimulation of autophosphorylation result in assay [1] (absence of insulin, 20 μM of sample composed mainly of TER12) is given as “over five-fold”. Besides, in assay [1] (read-out: EC50 for enhancing insulin stimulation, sample calculated as TER12), the half-maximal effective concentration (EC50) is around 20 µM. Also, in assay [1], the “agonist activity in IR kinase assay (in words)” value is recorded as “apparent agonist activity” and the “activity in IR kinase assay after synthesis or purification” value is recorded as “active”. On human insulin receptor (0.5 nM insulin plus 20 μM TER12 sample), the “percent of maximal phosphorylation” value is recorded as 120%. For the same compound, the “percent of maximal phosphorylation” value at human insulin receptor (5 nM insulin plus TER12 sample) came to 140%. At human insulin receptor (about 20 μM sample calculated as TER12, no insulin), the “percent of maximal insulin-stimulated activity” value is reported as 75%. For the same compound, in assay [2] (5 minutes exposure, sample containing 20 μM TER12), the “increase of basal insulin receptor kinase activity” value is on record as “two-fold”. In addition, in assay [2] (5 minutes exposure, sample containing 20 μM TER12, with insulin), the “increase of insulin stimulated insulin receptor kinase activity” value is reported as “five-fold”. The “stimulation of kinase phosphorylation of Raytide” value in assay [3] is listed as “stimulated”. Besides, the “effect on insulin-induced differentiation” value in the assay on 3T3-L1 fibroblast cells [4] (20 μM with insulin) is “enhances the differentiating effect of insulin”. The effect on differentiation entry in the assay on 3T3-L1 fibroblast cells [4] (sample alone) is recorded as “does not appear to effect differentiation”. Also, the “stimulation of glucose transport” value with 3T3-L1 fibroblast cells [5] (sample alone) is recorded as “failed to stimulate glucose transport significantly”. In the assay with 3T3-L1 fibroblast cells [5] (with insulin), the “effect on insulin-stimulated glucose transport” value is “enhanced the ability of insulin to do so”.

On to `COc1ccccc1NC(=O)C(N=Nc1ccc(-c2nc3ccc(C)c(S(=O)(=O)[O-])c3s2)cc1S(=O)(=O)[O-])C(C)=O.[Na+].[Na+]` (stereo not drawn) [TER3938, Direct Yellow 27], for which, in assay [1] (insoluble compound after washing sample with aqueous sodium carbonate), the “activity in IR kinase assay of insoluble compound” value is listed as “less active”. Besides, the 50% effective concentration (EC50) in assay [1] (read-out: EC50 in in vitro autophosphorylation assay) came out at 8 µM. Further, in assay [1], the “agonist activity in IR kinase assay (in words)” value is recorded as “agonist activity” and the “activity in IR kinase assay after synthesis or purification” value is recorded as “retained its activity”. Further, in assay [2] (intact IM-9 cells), the “enhancement of insulin-stimulated autophosphorylation of insulin receptor” value is on record as “enhanced the activity of insulin”.

As to insulin, the “redistribution of Glut4” value in assay [6] is given as “dramatic redistribution of Glut4 to the membrane surfaces”.

Source of the values: patent USRE39866E1 (Telik, Inc., priority 1997, dated 2007).
